The text below walks through data of EP0167553B1, “NEW THERAPEUTICAL APPLICATION OF AN INDANE DIONE DERIVATIVE AND PHARMACEUTICAL COMPOSITIONS INTENDED TO SAID UTILIZATION” (priority 1983, dated 1985).

Data set [1] relates to Rats: Wistar femelles. As to the kind of experiment: Atherogenic diet (modified Aubert technique): mortality, body weight, tolerance, overall score. Conditions: 100 mg/kg; for taux de mortalité: lots of 15 rats on atherogenic diet; for Score Total: sum of Biochimie, Risque athérogène, Macroscopie, Histologie. It is filed as in vivo, Rat Wistar. On the procedure:
(§1) • - Rats: Wistar femelles, E.O.P.S. en provenance de l'élevage EVIC-CEBA. • - Poids corporel: 160 180 g au départ de l'étude • - Alimentation: UAR A03, enrichi en cholestérol (0,5 %) et en Acide chloique (0,5 %). • - Eau de boisson: eau de ville. • - 15 animaux par lot et par cage MAKROLON SAFI® de 59 x 38,5 cm sur litière de copeaux de bois blanc dépoussiérés. • - Cages placées dans un module animalerie climatisé (20°C * 1°C), à l'humidité constante (50 % ± 10 %). Durée d'éclairement: 12 heures par jour (7 h à 19 h). • - Administration des produits: Après 15 jours de régime athéromateux, on leur administre par voie orale pendant 4 jours 250 000 Ul/kg de vitamine D2 (Stérogyl 15 H) en solution dans l'huile d'olive. On administre ensuite les produits à étudier pendant 4 semaines dès la fin de l'administration de l'agent lésionnel.
L'étude porte sur 5 Lots de 15 rats (tableau N° IV)
• - Le comportement et l'[…] pondérale des animaux sont étudiés par l'observation quotidienne et les pesées hebdomadaires. L'étude de l'évolution pondérale ne montre pas de différence significative entre les différents lots. C'est un indice de bonne tolérance du traitement. • - La moralité est notée dans chaque lot; elle peut atteindre 30 % des animaux ce qui nécessite des lots de 15 animaux. L'administration chronique de 100 mg/kg de Clofibrate correspond à la dose maximale tolérée par le Rat sain selon nos expériences personnelles.
Les scores obtenus par les différents produits étudiés sont les suivants (Tableau V)

Data set [2] in a line: Acute toxicity, single administration, digestive (oral) route. It is filed as in vivo. Conditions: mouse, in vivo, po. From the text: (§2) Souris SWISS mâles et femelles de 22 à 25g de poids corporel. Animaux EOPS. (exempte d'organisme pathogène spécifique), en provenance de l'élevage CERJ., 53680 LE GENEST et acclimatés au moins 8 jours à l'animalerie du laboratoire.
(§3) Sauf mention contraire précisée dans les tableaux de résultats, 10 animaux par dose, sexe et cage en MAKROLON SAFI@ de 40/25 cm. Litière de copeaux de bois blanc. Alimentation standard pour rats et souris UAR et eau ordinaire à volonté.
(§4) Ils sont administrés sans jeûne préalable: • - par voie digestive (intubation gastrique par sonde oesophagienne métallique) à raison de 0,5 ml ou 1 ml pour 20 g de poids corporel d'une suspension aqueuse à 3p.100 en gomme arabique du dérivé testé. • - par voie intrapéritonéale à raison de 0,5 ml ou 1 ml pour 20 g d'une suspension du dérivé testé dans le soluté isotonique de chlorure de sodium à 3p.100 en gomme arabique.
(§5) Pendant 6 heures après l'administration unique, puis tous les jours pendant 15 jours.
(§6) S'il y a lieu, les doses létales cinquante (DL50) sont calculées selon les méthodes de: • - Behrens et Karber (B.K.) • - Miller et Tainter (M.T.), cette dernière méthode permettant d'attribuer, pour le seuil de probabilité de P = 0,05 un intervalle de confiance aux DL 50.
(§7) En outre, sont déterminées les DLO et DL100. • - DLO = DMT: Dose Maxima toujours tolérée • - DL100 = DmM: Dose minima toujours Mortelle.

Data set [3] relates to Souris SWISS. The description is as above. It is filed as in vivo. Particulars: for létalité, symptomatologie toxique: 10.000 mg/kg VO, single dose, 10 souris mâles et femelles.
Text: as §2, §3, §4, §5, §6, §7

Data set [4] relates to Rats: Wistar femelles. Briefly: Atherogenic diet (modified Aubert technique): macroscopic examination of the aorta. The format is in vivo, Rat Wistar. Particulars: for Intensité des lésions Cotation: scale Stade 0 to Stade 5.
Text: La technique utilisée est celle, légèrement modifiée, de AUBERT D., FERAUD J.C., LACAZE B., PEPINO., PANAK E. et PODESTA M. "Athérogénèse expérimentale chez le Rat Wistar". ATHEROSCLEROSIS 2Q (1974) 263 - 280.
as §1
En fin d'étude, tous les animaux sont sacrifiés par ponction subtotale du sang à l'aorte abdominale après anesthésie au pentobarbital sodique. On prélève le coeur, le foie et l'aorte sur laquelle on effectue la cotation du pouvoir athérogène. Pour ce faire, les aortes sont coupées longitudinalement puis étalées pour permettre une vue d'ensemble du revêtement endothélial depuis les valvules aortiques jusqu'à la bifurcation du tronc coeliaque (segment inférieur de l'aorte thoracique).
L'aorte est séparée en 2 zones: • - Zone 1: Valvules aortiques - premières artères intercostales • - Zone 2: premières artères intercostales - bifurcation du tronc coeliaque.
L'intensité des dépôts athéromateux est évaluée selon les critères suivants: • - Stade 0: Absence de dépôts • - Stade 1: Dépôts discrets ([…]) peu nombreux • - Stade 2: Dépôts discrets nombreux • - Stade 3: Dépôts importants (> 1 mm) nombreux • - Stade 4: Dépôts très importants ou très nombreux mais laissant quelques zones non infiltrées. • - Stade 5: Dépôts sur tout l'endothélium.
Deux paramètres sont à prendre en considération: • 1. Le nombre d'animaux présentant des lésions macroscopiques, dont le pourcentage d'animaux atteints. • 2. L'intensité des lésions observées cotées selon les indications fournies précédemment.

Data set [5] in a line: Acute toxicity, single administration, intraperitoneal route. It is filed as in vivo. Particulars: mouse, in vivo, ip; for LD50 at 360 h: read-out: DL50; for mortality at 360 h: single dose. On the procedure: (§8) Souris SWISS mâles et femelles de 22 à 25g de poids corporel. Animaux EOPS.
as §3, §4, §5, §6, §7

Data set [6] concerns Souris SWISS. Described as above. Conditions: for DLO: DLO = Dose Maxima toujours tolérée. It is filed as in vivo. As to the method: as §8, §3, §4, §5, §6, §7

Like-named read-outs stand apart in the source and are kept apart here.

For the compound `CCOC(=O)C(C)(C)Oc1ccc(Cl)cc1` [Clofibrate], the “taux de mortalité” value in the data set with Rats: Wistar femelles [1] was 4/15. Also, in the data set with Rats: Wistar femelles [1], the “Score Total” value worked out at 13.00. In addition, the LD50 at 360 h in data set [2] (DL50) is 2500 ± 235 mg/kg; in data set [5] (voie intrapéritonéale, mâles, "de l'ordre de") it was about 1850 mg/kg. For the same compound, the DL50 with Souris SWISS [3] (mouse, in vivo, po, 360 h) is listed as 2650 ± 190 mg/kg; with Souris SWISS [6] (mouse, in vivo, ip, 21600 min), about 1700 mg/kg. Besides, in the data set with Rats: Wistar femelles [4] (100 mg/kg), the “Intensité des lésions Cotation” value is reported as 2.00.
Turning to `COc1ccc(C(=O)CC2(O)C(=O)c3ccccc3C2=O)cc1OC` [Produit de l'invention, 2-[(3,4-dimethoxybenzoyl)methyl] 2-hydroxy 1,3-dioxo indane], the “taux de mortalité” value with Rats: Wistar femelles [1] is 2/15. Besides, in the data set with Rats: Wistar femelles [1], the “Score Total” value turned out to be 10.46. For the same compound, the LD50 at 360 h is over 10000 mg/kg in data set [2] (VO, souris mâles et femelles, read-out: DL50); 3000 mg/kg in data set [5] (Souris Femelles, method Behrens et Karber (B.K.)); 3000 ± 145 mg/kg in data set [5] (Souris Femelles, method Miller et Tainter (M.T.), confidence interval P = 0,05); 3400 mg/kg in data set [5] (Souris Mâles, method Behrens et Karber (B.K.)); 3350 ± 190 mg/kg in data set [5] (Souris Mâles, method Miller et Tainter (M.T.), confidence interval P = 0,05); about 3000 mg/kg in data set [5] (voie intrapéritonéale, sex not specified, "de l'ordre de"). Moreover, the “létalité, symptomatologie toxique” value is on record as “ni létalité, ni symptomatologie toxique” in the data set on Souris SWISS [3] and “n'est pas toxique” in the data set with Souris SWISS [3] (listed as dérivé). Moreover, the DLO in the data set on Souris SWISS [3] (VO, souris mâles et femelles) is reported as at least 10.000 mg/kg; with Souris SWISS [6] (IP, Souris Femelles) it was 2000 mg/kg; in the data set on Souris SWISS [6] (IP, Souris Mâles), 2000 mg/kg. In the data set on Souris SWISS [3] (mouse, in vivo, 21600 min), this compound registered a DL100 of over 10000 mg/kg. Further, the “Animaux Atteints Score Clofibrate” value in the data set with Rats: Wistar femelles [4] (100 mg/kg) was determined as 1.69. For the same compound, in the data set on Rats: Wistar femelles [4] (100 mg/kg), the “Intensité des lésions Score Clofibrate” value is listed as 0.88. The “Observations Macroscopiques Score Total” value in the data set on Rats: Wistar femelles [4] (100 mg/kg) is listed as 2.57. Further, in the data set with Rats: Wistar femelles [4] (100 mg/kg, animals with macroscopic lesions), the “Animaux Atteints %” value is given as 69.23%. In the data set with Rats: Wistar femelles [4] (100 mg/kg), the “Intensité des lésions Cotation” value is on record as 2.08. Besides, the “activité sur l'évalution des lésions macroscopiques” value in the data set on Rats: Wistar femelles [4] (compared with Clofibrate at the same dose) is recorded as “plus actif”. Besides, the mortality at 360 h in data set [5] (2000 mg/kg, 2000 mg/kg IP, read-out: Létalite sur 10 souris Femelles) is 0%; in data set [5] (2000 mg/kg, 2000 mg/kg IP, read-out: Létalite sur 10 souris Mâles), 0%; in data set [5] (2500 mg/kg, 2500 mg/kg IP, read-out: Létalite sur 10 souris Femelles), 10%; in data set [5] (2500 mg/kg, 2500 mg/kg IP, read-out: Létalite sur 10 souris Mâles) it was 10%; in data set [5] (3000 mg/kg, 3000 mg/kg IP, read-out: Létalite sur 10 souris Femelles), 60%; in data set [5] (3000 mg/kg, 3000 mg/kg IP, read-out: Létalite sur 10 souris Mâles), 30%. In addition, the mortality at 360 h in data set [5] (3500 mg/kg, 3500 mg/kg IP, read-out: Létalite sur 10 souris Femelles) stood at 80%; in data set [5] (3500 mg/kg, 3500 mg/kg IP, read-out: Létalite sur 10 souris Mâles), 50%; in data set [5] (4000 mg/kg, 4000 mg/kg IP, read-out: Létalite sur 10 souris Femelles), 100%; in data set [5] (4000 mg/kg, 4000 mg/kg IP, read-out: Létalite sur 10 souris Mâles), 80%; in data set [5] (4500 mg/kg, 4500 mg/kg IP, read-out: Létalite sur 10 souris Femelles), 100%; in data set [5] (4500 mg/kg, 4500 mg/kg IP, read-out: Létalite sur 10 souris Mâles), 100%. The mortality at 360 h in data set [5] (5000 mg/kg, 5000 mg/kg IP, read-out: Létalite sur 10 souris Femelles) came out at 100%; in data set [5] (5000 mg/kg, 5000 mg/kg IP, read-out: Létalite sur 10 souris Mâles), 100%. Moreover, the “La mort survient par arrêt respiratoire en” value in the data set with Souris SWISS [6] (IP, time to death after injection) is 24 - 48 heures.
